From US11370757B2, “Photocleavable nitroindoline-based crosslinkers” (priority 2017, dated 2022)
*1 amine or outer side, *2 acyl side, *3 side chain or, on linkers, in order; H or OH if unused. Where a SMILES comes first, the peptide text is derived from it. [ ]: non-standard residue; d: D form. X1 = O=C(c1cc2c(c([N+](=O)[O-])c1)N([*:1])CC2)[*:2]; Hyp = O=C(O)[C@@H]1C[C@@H](O)CN1

Tests used:
[1] = Two-photon photolysis followed by fluorescence decay under a femtosecond laser at 710 nm; assay type: physicochemical; details: 710 nm femtosecond laser, 100 to 200 mW; film/gel on microscope slide; slope 2 = two-photon process
From the text: Two-photon microscope. The details of the in-housed developed two-photon microscope was previously described (Acosta et al., (2014) Biomed. Opt. Express 5, 3990-4001). In summary the light source is a mode-locked Ti:Sapphire laser (Maitai H P, 690-1040 nm, 100 fs, 80 MHz, Newport, Santa Clara, Calif.). The inventors have used 710 nm light to achieve two-photon excitation of N-acyl-nitroindoline. The home-built x-y scanner (polygon, galvanometer) can achieve 30 frames/s scanning rate. The laser power at the sample site is varied by rotating a half-wave plate in front of a polarizer. The fluorescence signal from the sample are detected in three spectral channels with photomultiplier tubes (PMTs): red (570-616 nm), green (500-550 nm), and blue (417-477 nm). […]
Several spots within the sample were irradiated under the two-photon microscope using 710 nm light with varying excitation laser output powers ranging from 100 to 200 mW with increments of 25 mW. […] Therefore, as the photolysis reaction progresses, the fluorescent peptide 1 is consumed, and consequentially a decrease in average fluorescence intensity at the irradiation site is observed. For each irradiated spot, a time series of fluorescence images was recorded at every minute to track the fluorescence intensity decay throughout the photo induced reaction process (FIG. 4a-4d). […]

[2] = assay type: physicochemical
Description: Circular Dichroism (CD) of peptide 1 and thermal stability measurements. Far-UV CD studies were conducted to study the secondary structure of peptide 1. The measurements were carried out using a 20 μM solution of the lyophilized peptide 1 in 15 mM NaCl and 10 mM Na/K buffer (pH 6.8). The sample was placed into a quartz cuvette of 1 mm path length (Jasco) and heated from 20° C.-70° C. to characterize its thermal stability. At each temperature, the sample was equilibrated for 4 min prior measurement of the spectrum. CD scans were performed at a range from 196-240 nm with three accumulations of data at each temperature to improve the S/N ratio. Each spectrum underwent 11 point Savitzky-Golay smoothing to minimize high frequency noise. The experimentally estimated ellipticities (Gobs) were converted to mean molar ellipticity [θ] using the formula: [θ]=(θobs)/ncl where l is the path length of the cuvette; c is the concentration of the peptide, and n is the number of […] in the peptide.

[3] = tested on: human mesenchymal stem cells; assay type: cell-based
From the text: Culture and passaging of human Mesenchymal Stem Cells (MSC). Human adipose derived mesenchymal stem cells were obtained from Lonza at passage=3 (Lonza, Allendale, N.J., USA) and cultured according to manufacturer's recommendations. Certification was obtained and kept in file to ensure that the purchased human MSC (Lonza) was verified to be of the correct lineage and uncontaminated by other cell types or organisms. For the human MSC culture, a complete growth medium (Lonza) specifically MSCGM human Mesenchymal Stem Cell (HMSC) growth BulletKit™ Medium (Lonza) was used for maintaining the mesenchymal stem cells in an undifferentiated state. This medium is referred to as complete growth medium for HMSC here onwards. Prior to cell seeding, T-75 culture flasks were coated with 0.1% gelatin (Sigma Aldrich, St. Louis, Mo., USA) and incubated (37° C., 1 h). After this, the cell suspension in complete culture medium was transferred to a gelatin coated T-75 flask and incubated for 1 h (37° C., 5% CO2 and 95% RH). Prior to cell culture, the gelatin solution used for coating of the flasks was aspirated. After 70% confluency in culture was attained, cells were trypsizined and passaged for further experiments. […] Following this, cells were seeded atop this layer and cultured for 24 hours after which they were imaged using fluorescence microscopy (Zeiss Axiovision).

Compound	slope of the regression line in the double-log plot of reaction rate vs. laser intensity [1]	stability of the structure at physiological temperature [2]	cytotoxicity to cultured mesenchymal stem cells [3]
O=C(NCC(=O)N1CCc2cc(Br)cc([N+](=O)[O-])c21)OCC1c2ccccc2-c2ccccc21 [compound 13, N-Fmoc-glycyl-5-bromo-7-nitroindoline]	1.996	–	–
NC(=O)CNC(=O)[C@@H]1CCCN1C(=O)[C@@H]1C[C@@H](O)CN1C(=O)CNC(=O)[C@@H]1CCCN1C(=O)[C@@H]1CCCN1C(=O)c1cc2c(c([N+](=O)[O-])c1)N(C(=O)CNC(=O)[C@@H]1CCCN1C(=O)[C@@H]1C[C@@H](O)CN1C(=O)CNC(=O)[C@@H]1CCCN1C(=O)[C@@H]1CCCN1C(=O)c1cc3c(c([N+](=O)[O-])c1)N(C(=O)CNC(=O)[C@@H]1CCCN1C(=O)[C@@H]1C[C@@H](O)CN1C(=O)CNC(=O)[C@@H]1CCCN1C(=O)[C@@H]1CCCN1C(=O)c1cc4c(c([N+](=O)[O-])c1)N(C(=O)CNC(=O)[C@@H]1CCCN1C(=O)[C@@H]1C[C@@H](O)CN1C(=O)CNC(=O)[C@@H]1CCCN1C(=O)[C@@H]1CCCN1C(=O)c1cc5c(c([N+](=O)[O-])c1)N(C(=O)CNC(=O)[C@@H]1CCCN1C(=O)[C@@H]1C[C@@H](O)CN1C(=O)CNC(=O)[C@@H]1CCCN1C(=O)[C@@H]1CCCN1)CC5)CC4)CC3)CC2 [peptide 1] (H-PPG[Hyp]PG[X1]PPG[Hyp]PG[X1]PPG[Hyp]PG[X1]PPG[Hyp]PG[X1]PPG[Hyp]PG-NH2)	–	very stable	not cytotoxic
